Non-standard residues stand in square brackets, D forms with d. Residues, ends and D or L forms follow the SMILES beside them. *: point of attachment. Bn = c1ccc(C*)cc1
Legend:
[1] = molecular target: T1, endothelin receptor A (ETA) (Sus scrofa, UniProt Q29010); assay: Assay of affinity for receptor (1): binding activity on ETA receptor, 125I-labeled endothelin-1, porcine heart membrane fraction; parameters: key: relative specific activity; reference cyclic pentapeptide ETA binding = 1.0; conditions: specific activity, taking the binding activity of control cyclo[-D-Glu-Ala-D-aIle-Leu-D-Trp-] on receptor A as 1.0, 25°C, 1 hour
T1 construct: A membrane fraction prepared from the porcine heart; from tissue; host or cells: porcine heart membrane fraction
T1 sequence (Q29010 21-427): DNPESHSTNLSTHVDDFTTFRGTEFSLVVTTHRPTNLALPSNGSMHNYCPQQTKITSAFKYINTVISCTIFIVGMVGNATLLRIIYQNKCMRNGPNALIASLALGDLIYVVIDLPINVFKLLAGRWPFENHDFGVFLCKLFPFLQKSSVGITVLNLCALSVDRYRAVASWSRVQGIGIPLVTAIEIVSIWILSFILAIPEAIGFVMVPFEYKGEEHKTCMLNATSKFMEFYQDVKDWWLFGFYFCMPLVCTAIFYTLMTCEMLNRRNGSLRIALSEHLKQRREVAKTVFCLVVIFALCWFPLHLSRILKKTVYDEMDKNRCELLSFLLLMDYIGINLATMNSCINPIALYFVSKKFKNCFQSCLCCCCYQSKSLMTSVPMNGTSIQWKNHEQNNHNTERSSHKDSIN
Experimental: Assay of Affinity for Receptor (1) ... Binding Activity on ETA Receptor
A membrane fraction prepared from the porcine heart was diluted to 0.15 mg/ml by using a buffer solution for assay, and 100 µl of the resulting suspension of the membrane fraction was poured into each assay tube to use for assay. To this suspension of the membrane fraction was added 2 µl of 5 nM ^125I-labeled endothelin-1 solution. Further, 3 µl of a test peptide solution was added thereto, followed by incubation at a temperature of 25°C for 1 hour. Then, the resulting suspension was diluted with 900 µl of the buffer solution for assay cooled with ice, and thereafter separated into a supernatant and a precipitate by centrifugation at 12,000 X g for 10 minutes. Cell membranes and an endothelin receptor A (ETA) embedded therein were contained in the precipitate, and radioactive iodine-labeled endothelin combined with the receptor was also recovered in the precipitate. Accordingly, the amount of radioactive iodine-labeled endothelin combined with the endothelin receptor A (ETA) was determined by measuring the amount of radioactive iodine contained in the precipitate with a gamma-ray counter. The cyclic pentapeptide described in Japanese Patent Application No. 2-413328/1990, cyclo[-D-Glu-Ala-D-aIle-Leu-D-Trp-], was used as a control compound. The numerical value of ETA shown in Table 1 is the value of specific activity, taking the binding activity of this cyclic pentapeptide on the receptor A as 1.0. The binding activity (IC50) of this cyclic pentapeptide on the ETA receptor is 2x10^-6 M.

ETB = ETB radio receptor assay *2, 125I-endothelin-1, guinea pig kidney crude membrane fraction; type: binding, Guinea pigs; conditions: relative activity, 37 °C, 90 minutes
Experimental: ETB Radio Receptor Assay *2
In the endothelin radio receptor assay, guinea pigs' kidneys were used. Guinea pigs (Std Hartrey, male 250 g, Japan SLC Ltd.) were made to have a cerebral concussion and sacrificed by bleeding from carotid arteries to pick up the kidneys and removed fat therefrom to prepare the kidneys. The obtained kidneys were sliced and homogenized by politron homogenizer in 20 ml of 50 mM Tris-HCl buffer [pH 7.4; 20 mM NaHCO3, 0.1 mM PMSF (Phenylmethylsulfonyl Fluoride), 1 mM EDTA (Ethylenediaminetetraacetic acid)] per one kidney. The homogenized kidney was applied to a centrifugation at 1,000 x g for 15 minutes and the supernatant was further applied to a centrifugation for 20 minutes at 30,000 x g. The resulting precipitate was twice washed with 50 mM Tris-HCl buffer (pH 7.4) containing 0.1 mM PMSF, 1 mM EDTA. The resultant was stored at -80 °C as a crude receptor membrane fraction and was used as the suspension in the following buffer when necessary.
740 Bq of ^125I-endothelin-1 (81.4 TBq/mmol, Du Pont, USA) as a radio ligand, the crude membrane fraction (2.1 µg protein) and samples were added to the following buffer. The reaction was performed at 37 °C, for 90 minutes in 0.2 ml of the buffer [50 mM Tris-HCl buffer (pH 7.4) containing 0.1 mM PMSF, 1 mM EDTA, 0.2% bovine serum albumin].
The reaction was stopped by fast filtration on a glass filter (GF/B, Wattman, USA) by Cell Harvestor (290 PHD, Cambridge-Technology, Great Britain), and the filter was three times washed with 50 mM Tris-HCl buffer (pH 7.4). Radio activity remained on the filter was assayed by a gamma counter.

| SMILES | Binding Activity on ET Receptor (R. act.) ETA [1] | Binding Activity on ET Receptor (R. act.) ETB*2 (ETB) |
| --- | --- | --- |
| CC(C)C[C@@H]1NC(=O)[C@@H](CC(C)C)NC(=O)[C@H](CCC(=O)O)NC(=O)[C@H](C)NC(=O)[C@@H](CC(=O)O)NC(=O)[C@@H](Cc2c[nH]c3ccccc23)NC1=O [Example 3, cyclo[-D-Asp-Ala-Glu-D-Leu-Leu-D-Trp-]] (cyclo(AE[dL]L[dW][dD])) | 7.9 | 23 |
| CC(C)C[C@@H]1NC(=O)[C@@H](CC(C)C)NC(=O)[C@@H](CCC(=O)O)NC(=O)[C@H](C)NC(=O)[C@@H](CC(=O)O)NC(=O)[C@@H](Cc2c[nH]c3ccccc23)NC1=O [Example 4, cyclo[-D-Asp-Ala-D-Glu-D-Leu-Leu-D-Trp-]] (cyclo(A[dE][dL]L[dW][dD])) | 2.3 | 1.4 |
| CC(C)C[C@@H]1NC(=O)[C@@H](CC(C)C)NC(=O)[C@H](C)NC(=O)CNC(=O)[C@@H](CC(=O)O)NC(=O)[C@@H](Cc2c[nH]c3ccccc23)NC1=O [Example 5, cyclo[-D-Asp-Gly-Ala-D-Leu-Leu-D-Trp-]] (cyclo(A[dL]L[dW][dD]G)) | 1.3 |  |
| CC(C)C[C@@H]1NC(=O)[C@@H](CC(C)C)NC(=O)[C@H](C)NC(=O)[C@H](CCC(=O)O)NC(=O)[C@@H](CC(=O)O)NC(=O)[C@@H](Cc2c[nH]c3ccccc23)NC1=O [Example 7, cyclo[-D-Asp-Glu-Ala-D-Leu-Leu-D-Trp-]] (cyclo(A[dL]L[dW][dD]E)) | 6.5 | 7.1 |
| CC(C)C[C@@H]1NC(=O)[C@@H](CC(C)C)NC(=O)[C@H](CC(=O)O)NC(=O)[C@H](C(C)C)NC(=O)[C@@H](CC(=O)O)NC(=O)[C@@H](Cc2c[nH]c3ccccc23)NC1=O [Example 17, Cyclo[-D-Asp-Val-Asp-D-Leu-Leu-D-Trp-]] (cyclo(D[dL]L[dW][dD]V)) | 3.7 | 22 |
| CC(C)C[C@@H]1NC(=O)[C@@H](CC(C)C)NC(=O)[C@H](CC(=O)O)NC(=O)[C@H](CC(C)C)NC(=O)[C@@H](CC(=O)O)NC(=O)[C@@H](Cc2c[nH]c3ccccc23)NC1=O [Example 18, Cyclo[-D-Asp-Leu-Asp-D-Leu-Leu-D-Trp-]] (cyclo(D[dL]L[dW][dD]L)) | 13 | 2.2 |
| CC(C)C[C@@H]1NC(=O)[C@@H](CC(C)C)NC(=O)[C@H](CC(=O)O)NC(=O)[C@H](Cc2ccccc2)NC(=O)[C@@H](CC(=O)O)NC(=O)[C@@H](Cc2c[nH]c3ccccc23)NC1=O [Example 19, Cyclo[-D-Asp-Phe-Asp-D-Leu-Leu-D-Trp-]] (cyclo(D[dL]L[dW][dD]F)) | 8.3 | 7.1 |
| CC(C)C[C@@H]1NC(=O)[C@@H](CC(C)C)NC(=O)[C@H](CC(=O)O)NC(=O)[C@H](COCc2ccccc2)NC(=O)[C@@H](CC(=O)O)NC(=O)[C@@H](Cc2c[nH]c3ccccc23)NC1=O [Example 20, Cyclo[-D-Asp-Ser(Bzl)-Asp-D-Leu-Leu-D-Trp-]] (cyclo(D[dL]L[dW][dD]S(Bn))) | 14 | 13 |
| CC(C)C[C@@H]1NC(=O)[C@@H](CC(C)C)NC(=O)[C@H](CC(=O)O)NC(=O)[C@H]2CCCN2C(=O)[C@@H](CC(=O)O)NC(=O)[C@@H](Cc2c[nH]c3ccccc23)NC1=O [Example 24, Cyclo[-D-Asp-D-Pro-Asp-D-Leu-Leu-D-Trp-]] (cyclo(D[dL]L[dW][dD][dP])) | 1.7 |  |
| CC(C)C[C@@H]1NC(=O)[C@@H](CC(C)C)NC(=O)[C@@H]2CCCN2C(=O)[C@H](CC(=O)O)NC(=O)[C@@H](CC(=O)O)NC(=O)[C@@H](Cc2c[nH]c3ccccc23)NC1=O [Example 30, Cyclo[-D-Asp-Asp-Pro-D-Leu-Leu-D-Trp-]] (cyclo(DP[dL]L[dW][dD])) | 4.4 | 9.1 |
| CC(C)C[C@@H]1NC(=O)[C@@H](CC(C)C)NC(=O)CNC(=O)[C@H](C)NC(=O)[C@@H](CCC(=O)O)NC(=O)[C@@H](Cc2c[nH]c3ccccc23)NC1=O [Example 40, Cyclo[-D-Glu-Ala-Gly-D-Leu-Leu-D-Trp-]] (cyclo(AG[dL]L[dW][dE])) | 1.4 |  |
| CC(C)C[C@H]1NC(=O)[C@H](CC(=O)O)NC(=O)[C@H](C)NC(=O)[C@@H](CC(=O)O)NC(=O)[C@@H](Cc2c[nH]c3ccccc23)NC(=O)[C@H](Cc2ccccc2)NC1=O [Example 57, Cyclo[-D-Asp-Ala-Asp-D-Leu-Phe-D-Trp-]] (cyclo(AD[dL]F[dW][dD])) |  | 2.0 |

Next, values leading:

| Binding Activity on ET Receptor (R. act.) ETA [1] | Binding Activity on ET Receptor (R. act.) ETB*2 (ETB) | SMILES |
| --- | --- | --- |
| 3.7 | 3.1 | CC(C)C[C@@H]1NC(=O)[C@@H](CC(C)C)NC(=O)[C@@H](CC(=O)O)NC(=O)[C@H](C)NC(=O)[C@@H](CC(=O)O)NC(=O)[C@@H](Cc2c[nH]c3ccccc23)NC1=O [Example 2, cyclo[-D-Asp-Ala-D-Asp-D-Leu-Leu-D-Trp-]] (cyclo(A[dD][dL]L[dW][dD])) |
| 6.0 | 7.1 | CC(C)C[C@@H]1NC(=O)[C@@H](CC(C)C)NC(=O)[C@H](C)NC(=O)[C@H](CC(=O)O)NC(=O)[C@@H](CC(=O)O)NC(=O)[C@@H](Cc2c[nH]c3ccccc23)NC1=O [Example 6, cyclo[-D-Asp-Asp-Ala-D-Leu-Leu-D-Trp-]] (cyclo(A[dL]L[dW][dD]D)) |
| 5.7 | 7.7 | CC(C)C[C@@H]1NC(=O)[C@@H](CC(C)C)NC(=O)[C@H](CC(=O)O)NC(=O)[C@@H](C)NC(=O)[C@@H](CC(=O)O)NC(=O)[C@@H](Cc2c[nH]c3ccccc23)NC1=O [Example 15, Cyclo[-D-Asp-D-Ala-Asp-D-Leu-Leu-D-Trp-]] (cyclo(D[dL]L[dW][dD][dA])) |
| 5.7 | 4.8 | CC(C)C[C@@H]1NC(=O)[C@@H](CC(C)C)NC(=O)[C@H](C)NC(=O)[C@@H](CC(=O)O)NC(=O)[C@@H](CC(=O)O)NC(=O)[C@@H](Cc2c[nH]c3ccccc23)NC1=O [Example 27, Cyclo[-D-Asp-D-Asp-Ala-D-Leu-Leu-D-Trp-]] (cyclo(A[dL]L[dW][dD][dD])) |
| 5.7 | 5.3 | CC(C)C[C@@H]1NC(=O)[C@@H](CC(C)C)NC(=O)[C@H](C)NC(=O)[C@@H](CCC(=O)O)NC(=O)[C@@H](CC(=O)O)NC(=O)[C@@H](Cc2c[nH]c3ccccc23)NC1=O [Example 28, Cyclo[-D-Asp-D-Glu-Ala-D-Leu-Leu-D-Trp-]] (cyclo(A[dL]L[dW][dD][dE])) |
| 2.6 | 2.4 | CC(C)C[C@@H]1NC(=O)[C@@H](CC(C)C)NC(=O)[C@@H](C)NC(=O)[C@H](CC(=O)O)NC(=O)[C@@H](CC(=O)O)NC(=O)[C@@H](Cc2c[nH]c3ccccc23)NC1=O [Example 29, Cyclo[-D-Asp-Asp-D-Ala-D-Leu-Leu-D-Trp-]] (cyclo(D[dA][dL]L[dW][dD])) |

— patent EP0552417B1, “Cyclic peptides and use thereof” (priority 1991, dated 1993)
